Experimental data from US20070293582A1, “Epinephrine dosing regimens comprising buccal, lingual or sublingual and injectable dosage forms” (priority 2006, published 2007).
Like-named read-outs stand apart in the source and are kept apart here.

Tested on: patient experiencing an allergic emergency (symptoms of anaphylaxis)
Settings: approximately 5 minutes apart
Procedure: (§1) A patient experiencing an allergic emergency initiates treatment at the onset of shortness of breath by self administering 40 mg of epinephrine free base in a buccal dosage form.
as §1
A patient experiencing an allergic emergency initiates treatment at the onset of shortness of breath by self administering 40 mg of epinephrine free base in a lingual dosage form.

Measured: patient's symptoms of anaphylaxis

CNC[C@H](O)c1ccc(O)c(O)c1 [epinephrine]
relieved: Example 1: 40 mg buccal, second 40 mg buccal, then first auto-injected 0.3 mg dose, outcome within about five minutes after the first injectable dose | Example 2: 40 mg buccal, 60 mg buccal, then two auto-injected 0.3 mg doses, outcome within about five minutes after the second injectable dose | Example 3: 40 mg lingual, 60 mg lingual, then two auto-injected 0.3 mg doses, outcome within about five minutes after the second injectable dose
